# Reference: patent US20060269924A1, “Modulation of telomere-initiated cell signaling” (TRUSTEES OF BOSTON UNIVERSITY, priority 2003, published 2006)
# {P} = phosphate
# Columns and labels:
# Jurkat cells = assay: FACS analysis of propidium iodide stained Jurkat cells (cell cycle, sub-G0/G1 apoptosis); assay type: cell-based, human
# Protocol: FIGS. 1A-1H show FACS analysis of propidium iodide stained Jurkat cells (immortalized T lymphocytes), treated with diluent (FIGS. 1A and 1E); 40 μM 11mer-1 pGTTAGGGTTAG (SEQ ID NO: 2) (FIGS. 1B and 1F); 40 μM 11mer-2 pCTAACCCTAAC (SEQ ID NO: 3) (FIGS. 1C and […]); 40 μM 11mer-3 pGATCGATCGAT (SEQ ID NO: 4) (FIGS. 1D and 1H). Jurkat cells were treated with the stated reagents for 48 hours before analysis (FIGS. 1A-1D) or 72 hours (FIGS. 1E-1H).
# FIGS. 2A-2F are profiles showing the results of fluorescence activated cell sorting, for the following additions to the cells: FIG. 2A, diluent; FIG. 2B, 0.4 μM 11mer-1; FIG. 2C, 0.4 μM 11mer-1-S; FIG. 2D, diluent; FIG. 2E, 40 μM 11mer-1; FIG. 2F, 40 μM 11 mer-1-S.
# Oligonucleotides homologous to the telomere overhang repeat sequence (TTAGGG; SEQ ID NO: 1), sequence (11mer-1: pGTTAGGGTTAG; SEQ ID NO: 2), complementary to this sequence (11mer-2: pCTAACCCTAAC; SEQ ID NO: 3) and unrelated to the telomere sequence (11mer-3: pGATCGATCGAT; SEQ ID NO: 4) were added to cultures of Jurkat cells, a line of human T cells reported to undergo apoptosis in response to telomere disruption. Within′ 48 hours, 50% of the cells treated with 40 μM of SEQ ID NO: 5 had accumulated in the S phase, compared to 25-30% for control cells (p<0.0003, non-paired t-test; see FIGS. 1A-1D), and by 72 hours, 13% of these cells were apoptotic as determined by a sub-G0/G1 DNA content, compared to 2-3% of controls (p<0.007, non-paired t-test; see FIGS. 1E-1H). At 96 hours, 20±3% of the 11mer-1 treated cells were apoptotic compared with 3-5% of controls (p<0.0001, non-paired t-test). To exclude preferential uptake of the 11mer-1 as an explanation of its singular effects, Jurkat cells were treated with oligonucleotides labeled on the 3′ end with fluorescein phosphoramidite, then subjected to confocal-microscopy and FACS analysis. The fluorescence intensity of the cells was the same after all treatments at 4 hours and 24 hours.
# Cultures of Jurkat human T cells were treated with either diluent, 11mer-1 ([…]) or the phosphorothioate 11mer-1 (11mer-1-S) for 96 hours, then collected and processed for FACS analysis. Two concentrations of the oligonucleotides were tested, 0.4 μM (FIGS. 2A-2C) and 40 μM (FIGS. 2D-2F).
# [1] = tested on: p95 phosphorylated at serine 343; assay: p95 serine 343 phosphorylation after tankyrase siRNA, western blotting and densitometry; assay type: cell-based, human; conditions: 24 hours
# Protocol: Paired cultures of human fibroblasts were treated once with tankyrase siRNA, with a non-specific siRNA (control) or were mock transfected as a second control. […] After an additional 24 hours, cells were collected and processed for western blotting using an antibody specific for p95 phosphorylated at serine 343, indicating p95 modification by activated ATM kinase. The film was then subjected to densitometry and the diluent control for each group of cells was set at 1.0 in arbitrary units (FIG. 19). As expected, in cells with normal tankyrase levels the T-oligo treated cells had twice the amount of phosphorylated p95, while the control oligo-treated or diluent-treated cells had only a 30-40% increase.
# Saos-2 cells = assay: FACS analysis of Saos-2 cells; assay type: cell-based; conditions: Saos-2 (telomerase negative), 40 μM, 48 hours
# Protocol: FIG. 18a: FACS profiles from one representative experiment of three with the percentage and standard deviations of cells in each phase of the cell cycle was calculated from triplicate cultures of each condition. FIG. 18b: Western blots with an antibody specific for phospho-p95/Nbs1. Lanes 1, 2 and 3 contained protein from cells treated with diluent, 11mer-1 or 11mer-2, respectively. Control cells (3 hours) were irradiated with 10 Gy of IR (+), or were sham irradiated (−).
# Saos-2 cells are an osteosarcoma cell line that is reportedly telomerase negative and maintain telomeres by the ALT pathway. Saos-2 cell lines were treated with either diluent or 40 μM of the indicated oligonucleotide and cells were collected after 48 hours for FACS analysis. […] The results that the effect of the T-oligo in the telomerase negative cells is identical to the response in telomerase positive malignant cell lines.
# [2] = tested on: p53, E2F1 transcription factor; assay: Western analysis of p53 and E2F1 in Jurkat cells; assay type: cell-based, human; conditions: by 24 hours after addition
substance,measurement,setting,value
"pGTTAGGGTTAG (DNA, 5' {P}, backbone not given here; listed as Homo sapiens) [Oligonucleotide 11mer-1]",effect on exponentially growing cell cycle profile,"Jurkat cells; 0.4 μM, 96 hours",neither of the oligonucleotides affected
same,cells accumulated in the S phase,"Jurkat cells; 40 μM, 48 hours",50%
same,apoptotic cells (sub-G0/G1 DNA content),"Jurkat cells; 40 μM, 72 hours",13%
same,apoptosis (sub-G0/G1 peak),"Jurkat cells; 40 μM, 96 hours",induced extensive apoptosis
same,apoptotic cells,Jurkat cells; 96 hours,20±3%
same,amount of phosphorylated p95 relative to diluent control,[1]; human fibroblasts with normal tankyrase levels,twice
same,"level of p95 phosphorylation (densitometry, diluent control set at 1.0)",[1]; tankyrase knockdown group (tankyrase siRNA),1.1 arbitrary units
same,S phase arrest,Saos-2 cells,causes an S phase arrest
same,level of the E2F1 transcription factor,[2],concomitant increase
same,p53 level (Western analysis),[2],increase
